The nature of one data set: Kinetic solubility assay. The format is physicochemical. The settings on record: for solubility at 24 h: aqueous buffer, kinetic from dmso stock, phosphate buffer pH 7.4, 24 h, room temperature, LC-MS, read-out: Solubility PBS. As for the experimental part: 10 µL of 10 mM DMSO stock solution of test and control compounds was added to 990 µL phosphate buffer with pH 7.4. […] Samples were centrifuged, and the supernatant was transferred into a filter plate. Then, the filtrates were quantified by an LC‐MS system to get solubility results.

In another data set the test system is P-gp (MDR1). The data set is described as follows: MDR1-MDCKII permeability assay. The settings on record: dog, MDCK-MDR1, pH 7.4, MDR1-MDCKII, 2 µM, 2.0 h, n = 2; for Papp A→B at 2 h, 2 µM: read-out: Apical to basal (AP-BL) Papp; for Papp B→A at 2 h, 2 µM: read-out: Basal to apical (BL-AP) Papp. Format: in vitro ADME. As for the experimental part:
(§1) MDR1‐MDCKII assay was processed by Sai Life Sciences Pvt. Ltd. Briefly, MDR1‐MDCKII cells were seeded onto the polycarbonate membranes in the 24‐well insert system at 0.12 × 10^6 cells/well and cultured for 8 days until confluence before being used for the transport studies. Test compounds were diluted with the transport buffer (HPSS with 10 mM HEPES, pH 7.4) from a DMSO stock solution to a concentration of 2 µM (DMSO < 1%) and applied to the apical or basolateral side of the cell monolayer. The plate was incubated for 2.0 h in a CO2 incubator at 37±1°C, with 5% CO2 at saturated humidity without shaking. Permeability was measured in duplicate (n = 2) in both A→B and B→A directions. Loperamide (P‐gp efflux substrate) was tested at 2 µM bidirectionally, Verapamil was used as P‐gp inhibitor. While Atenolol (low permeability marker) and Propranolol (high permeability marker) were tested at 2.00 µM in the A to B direction in duplicate. Test and reference compounds were quantified by LC‐MS/MS analysis based on the peak area ratio of analyte/internal standard (IS). The efflux ratio of each compound was calculated. Permeability measurements were performed in duplicate (n = 2) in both directions, and the summarized permeability values and efflux ratios are presented in Figure 3A. The corresponding experimental data, including bidirectional Papp values, recovery, and variability (%CV), are provided in Table S3, thereby supporting the results shown in Figure 3A. After the transport assay, Lucifer yellow fluorescence rejection assay was performed to confirm the integrity of the cell monolayer.

Another data set concerns MDR1 (P-gp). The data set is described as follows: MDR1-MDCKII permeability assay. Format: in vitro ADME. The settings on record: dog, MDCK-MDR1, pH 7.4, MDR1-MDCKII. Here is the method: as §1
In the next data set the test system is SUMO1. The data set is described as follows: SUMO1 protein levels (western / dot blot). The format is cell-based, human.
A further data set deals with T1, CAPRIN1 (Homo sapiens, UniProt Q14444).
T1 construct: 10xHis (followed by a 3C site) (N); made in house; host or cells: Tni (Hi5) insect cells, baculovirus
T1 sequence (Q14444 whole entry): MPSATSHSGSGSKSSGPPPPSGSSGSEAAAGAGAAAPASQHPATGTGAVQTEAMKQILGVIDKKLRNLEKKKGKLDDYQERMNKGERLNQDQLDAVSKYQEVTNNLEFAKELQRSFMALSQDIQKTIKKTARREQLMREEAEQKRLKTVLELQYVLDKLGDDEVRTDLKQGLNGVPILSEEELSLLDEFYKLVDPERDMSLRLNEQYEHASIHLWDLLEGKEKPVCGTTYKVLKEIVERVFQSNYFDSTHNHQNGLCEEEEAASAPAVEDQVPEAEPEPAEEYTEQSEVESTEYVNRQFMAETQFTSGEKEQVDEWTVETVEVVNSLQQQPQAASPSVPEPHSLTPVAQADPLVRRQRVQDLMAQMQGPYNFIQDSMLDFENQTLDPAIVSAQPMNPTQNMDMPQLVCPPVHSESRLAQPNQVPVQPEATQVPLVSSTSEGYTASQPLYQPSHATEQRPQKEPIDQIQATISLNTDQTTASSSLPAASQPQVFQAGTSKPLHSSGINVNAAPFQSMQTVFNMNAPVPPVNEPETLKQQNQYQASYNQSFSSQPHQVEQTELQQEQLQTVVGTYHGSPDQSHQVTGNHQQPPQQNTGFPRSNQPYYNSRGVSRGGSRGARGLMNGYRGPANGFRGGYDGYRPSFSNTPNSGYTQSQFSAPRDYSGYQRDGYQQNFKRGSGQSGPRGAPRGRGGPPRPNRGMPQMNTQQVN
The data set is described as follows: SPR, compound onto CAPRIN1 alone. The format is binding. The settings on record: immobilized CAPRIN1. As for the experimental part:
SPR experiments were conducted to investigate the interaction between APP695 and CAPRIN1 proteins using a Biacore T200 instrument (Cytiva). Both proteins were expressed in Tni (Hi5) insect cells and purified to homogeneity via tandem affinity and ion‐exchange. Protein purity and integrity were confirmed by SDS‐PAGE and size‐exclusion chromatography prior to analysis. All experiments were performed in a running buffer consisting of 50 mM HEPES at pH7.0, 100 mM KCl, 10% glycerol, and 0.01% (v/v) Tween‐20 supplemented with 0.1% (w/v) Sarkosyl (pH 7.4). APP695 was serially diluted in running buffer to final concentrations of 15, 5, 1, and 0.3 µM. Chip Preparation: A CM5 sensor chip (Cytiva) was activated using a 1:1 (v/v) mixture of 0.1 M N‐hydroxysuccinimide (NHS) and 0.1 M N‐ethyl‐N′‐(3‐dimethylaminopropyl) carbodiimide (EDC) to generate reactive ester groups. CAPRIN1 was diluted to 50 µg/mL in 10 mM Hepes‐KOH buffer (pH 6.0) and immobilized on the chip surface via standard amine coupling to achieve immobilization. Unreacted sites were blocked with 1 M ethanolamine‐HCl (pH 8.5). A reference flow cell was prepared similarly but without protein immobilization to control for non‐specific binding and bulk refractive index changes. Binding assay: Binding interactions were measured at 25°C with a flow rate of 30 µL/min. […]
A general note: SPR reads the build-up and loss of mass on a sensor chip optically.

The target in a further data set is APP (Homo sapiens, UniProt P05067). The data set is described as follows: Western blot of APP in iPSC-derived neurons. On the set-up: endogenous in cells; host or cells: iPSC-derived neurons (AG27606-Ns, sAD2.3-Ns and others). The settings on record: for APP-degrading activity after Bafilomycin A1 pretreatment: Baf A1 20 nM, AG27606-Ns, sAD2.3-Ns, HEK-APP695 cells; for APP-degrading activity after Bafilomycin A1 pretreatment / APP-degrading activity after MG132 pretreatment: 30 min, then compound 10 µM, 24 h; for APP-degrading activity after MG132 pretreatment: MG132 5 µM. Format: cell-based. In general terms: A western blot detects proteins with antibodies after separation by electrophoresis.
Chain of APP (P05067 18-695 isoform P05067-4): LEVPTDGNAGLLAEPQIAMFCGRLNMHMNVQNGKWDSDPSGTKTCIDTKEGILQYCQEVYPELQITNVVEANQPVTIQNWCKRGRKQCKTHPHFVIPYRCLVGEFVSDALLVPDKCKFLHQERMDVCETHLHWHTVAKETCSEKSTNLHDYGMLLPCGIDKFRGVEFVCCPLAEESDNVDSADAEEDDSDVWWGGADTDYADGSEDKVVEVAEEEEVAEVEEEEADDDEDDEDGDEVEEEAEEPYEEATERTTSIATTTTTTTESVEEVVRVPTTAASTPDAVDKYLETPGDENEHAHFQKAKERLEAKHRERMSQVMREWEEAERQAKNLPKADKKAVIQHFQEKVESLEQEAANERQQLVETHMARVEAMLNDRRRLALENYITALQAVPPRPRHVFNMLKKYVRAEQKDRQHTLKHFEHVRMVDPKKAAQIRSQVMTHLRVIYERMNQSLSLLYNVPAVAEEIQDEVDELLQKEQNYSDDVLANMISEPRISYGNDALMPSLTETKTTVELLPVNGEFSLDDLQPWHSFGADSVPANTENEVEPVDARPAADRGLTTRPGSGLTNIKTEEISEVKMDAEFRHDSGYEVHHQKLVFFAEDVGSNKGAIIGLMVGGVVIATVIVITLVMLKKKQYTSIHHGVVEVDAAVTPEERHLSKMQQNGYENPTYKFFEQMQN
Chain of APP (Q14444 whole entry partner): as the sequence (Q14444 whole entry) above

Where [1] appears, read: read-out: % Recovery (Overall) - Apical to basal.
Where [2] appears, read: read-out: % Recovery (Overall) - Basal to Apical.

Consider 2 compounds from PMC13534789, “Molecular Glue Degraders Enhance CAPRIN1‐Dependent Lysosomal Degradation of APP and Reduce Amyloid β in Alzheimer's Disease” (Advanced Science, 2026).

Values after ≈ are worked out from the molar mass of the structure shown. Like-named read-outs stand apart in the source and are kept apart here.

Usually solubility stands for how much of the substance goes into solution per volume. As usually defined, the efflux ratio is the permeability from basolateral to apical divided by that in the opposite direction, in the common usage.

`N#Cc1cccc(NC(=O)Nc2nc3ccc(C(=O)N4CCOCC4)cc3s2)c1` [compound 0043]: in the data set “Kinetic solubility assay”, the “Aqueous solubility by LC-MS, in words” value is given as “poor aqueous solubility” and the solubility at 24 h amounted to 0.06 µg/mL (≈ 0.147 µM). Besides, in the data set with P-gp (MDR1), the efflux ratio at 2 h, 2 µM was 114; the Papp A→B at 2 h, 2 µM was found to be 0.4 ×10⁻⁶ cm/s; the Papp B→A at 2 h, 2 µM was determined as 42.6 ×10⁻⁶ cm/s. Also, the recovery at 2 h, 2 µM with MDR1 (P-gp) (setting [1]) was 121%. Also, the recovery at 2 h, 2 µM in the data set with MDR1 (P-gp) (setting [2]) stood at 106%. The “SUMO1 protein levels in cancer cells” value in the data set with SUMO1 (HCT116 and LN229 cells) is reported as “no effects”. Also, the “Interaction with CAPRIN1 alone” value on CAPRIN1 was “no noticeable interaction”. For the same compound, on APP, the “APP-degrading activity after Bafilomycin A1 pretreatment” value was “abolished” and the “APP-degrading activity after MG132 pretreatment” value was “no effect”. Besides, the “Intracellular APP (western blot)” value at APP (SAD2.3-Ns and AG27606-Ns, 72 h, BI 10 µM) is given as “reduced intracellular APP”.

`COc1cccc(NC(=O)Nc2nc3ccc(C(=O)N4CCOCC4)cc3s2)c1` [compound 0152]: in the data set “Kinetic solubility assay”, the “Aqueous solubility by LC-MS, in words” value is reported as “significantly improved aqueous solubility” and the solubility at 24 h was 0.4 µg/mL (≈ 0.97 µM). Moreover, in the data set with P-gp (MDR1), the efflux ratio at 2 h, 2 µM stood at 78; the Papp A→B at 2 h, 2 µM was found to be 0.5 ×10⁻⁶ cm/s; the Papp B→A at 2 h, 2 µM came out at 37.4 ×10⁻⁶ cm/s. In addition, in the data set with MDR1 (P-gp) (setting [1]), the recovery at 2 h, 2 µM worked out at 121%. Moreover, in the data set with MDR1 (P-gp) (setting [2]), the recovery at 2 h, 2 µM is 141%. Also, the “SUMO1 levels in neuronal cells” value with SUMO1 (AG27606-derived neurons, 10 µM, 3 days) is reported as “no appreciable change”. The “Interaction with CAPRIN1 alone” value at CAPRIN1 was “no noticeable interaction”. In addition, at APP, the “APP-degrading activity after Bafilomycin A1 pretreatment” value was “abolished” and the “APP-degrading activity after MG132 pretreatment” value is on record as “no effect”.
